What was measured:
ER+ PDX lines (BCaPE) = settings: four CENMP- PDX lines compared with three CENMP+ lines; p=0.02; cited from earlier work
ZR-75 cells = test: Growth assay (Alamar blue) in ZR-75 cells with knockdown of DDR genes; format: cell-based, human; settings: siCETN2, siNEIL2 and siERCC1 ZR-75 cells (transient siRNA) vs siScr; media containing full serum
Procedure: ZR75.1 and MCF7 parental cells were from ATCC, 2015 and 2017 respectively, and tested for mycoplasma contamination upon arrival using the Lonza Mycoalert Plus Kit (CAT# LT07-710) as per the manufacturer's instructions, and annually since. Both lines were maintained in RPMI 1640 1X w/ L-glutamine and 1% Penicillin/Streptomycin (Sigma-Aldrich, CAT#P4333—100 mL). Cell lines used for experiments were <20 passages. Transient transfections with esiRNA (Sigma-Aldrich) towards human NEIL2 (CAT#EHU158461), CETN2 (CAT#EHU137031), ERCC1 (CAT#EHU156971), RAD23B (CAT#EHU145881) and POLM (CAT#SASI_Hs02_003344553), or scrambled control used at 50 nmoles/L each were delivered using Polypluys jetPRIME® transfection reagent (CAT#114-07) as per the manufacturer's instructions. Cells were plated for experiments 48 hrs after transfection. Stable selection with puromycin after infection with lentivirus harboring RNAi oligos (ABM) against human NEIL2 (CAT#i014980a), CETN2 (CAT#i004479a), and ERCC1 (CAT#i007023a) or scrambled control (CAT#i000238c) was conducted using manufacturer's protocol. Growth assays were repeated independently in triplicate as previously reported (50) using Alamar blue to detect cell viability. Final readings were between 4-6 days after initial drug treatment and fold change plotted for analysis. […]

MCF7 cells [1] = test: FACS analysis for PCNA in MCF7 cells after fulvestrant treatment; format: cell-based, human; settings: MCF7 cells with stable knockdown of CETN2, NEIL2, ERCC1 and MLH1 relative to control cells; 100 nM fulvestrant
Procedure: (§1) FIGS. 17A-17E. Dysregulation of CETN2, NEIL2 and ERCC1 expression in ER+ breast cancer cells alters regulation of G1/S transition of the cell cycle. FIG. 17A & FIG. 17D) Histograms representing percentage of siScr, siCETN2, siNEIL2, siERCC1 and siMLH1 MCF7 cells that are Ki67 (FIG. 17A) and PCNA (FIG. 17D) positive after 48 hours of treatment with 100 nM of fulvestrant. Columns represent the mean and error bars the standard deviation. Student's t-test determined p-values. FIG. 17B-FIG. 17C) Boxplots indicating levels of CDK4 mRNA and PCNA protein level in CETN2, ERCC1, NEIL2, PRKDC proficient (CEN+PRKDCwt) and deficient (CEN-PRKDCmut) ER+ breast tumors based on values from microarray and RPPA data from TCGA. Wilcoxon Rank Sum test determined p-values. FIG. 17E) Histograms depicting percent growth inhibition in fulvestrant and abemaciclib (CDK4/6i)-treated MCF7 cells stably selected for RNAi-mediated knockdown of control, CETN2, ERCC1 or NEIL2, relative to vehicle treated cells. […] Student's t-test determined p-values.
(§2) RNA from cell lines was extracted using the Qiagen RNeasy Mini Kit (CAT#74106) and converted to cDNA using Bio-Rad Reverse Transcriptase iScript (CAT#TX1708891BAY), both following manufacturers' instructions. cDNA was quantified by qPCR using Bio-Rad SsoAdvanced Universal SYBR Green supermix (CAT#17525272) at the manufacturers specifications. […]

MCF7 cells [2] = test: Ki67 immunofluorescence in MCF7 cells before and after fulvestrant treatment; format: cell-based, human; settings: siCETN2, siNEIL2, siERCC1 MCF7 cells vs siScr control; 100 nM fulvestrant, 48 hours
Procedure: as §1, §2

MCF7 cells [3] = test: Growth assay (Alamar blue) in MCF7 cells with knockdown of DDR genes; format: cell-based, human; settings: for sensitivity (growth inhibition relative to vehicle treated cells): 100 nM fulvestrant, 1 μM Palbociclib
Procedure: ZR75.1 and MCF7 parental cells were from ATCC, 2015 and 2017 respectively, and tested for mycoplasma contamination upon arrival using the Lonza Mycoalert Plus Kit (CAT# LT07-710) as per the manufacturer's instructions, and annually since. Both lines were maintained in RPMI 1640 1X w/ L-glutamine and 1% Penicillin/Streptomycin (Sigma-Aldrich, CAT#P4333—100 mL). Cell lines used for experiments were <20 passages. Transient transfections with esiRNA (Sigma-Aldrich) towards human NEIL2 (CAT#EHU158461), CETN2 (CAT#EHU137031), ERCC1 (CAT#EHU156971), RAD23B (CAT#EHU145881) and POLM (CAT#SASI_Hs02_003344553), or scrambled control used at 50 nmoles/L each were delivered using Polypluys jetPRIME® transfection reagent (CAT#114-07) as per the manufacturer's instructions. Cells were plated for experiments 48 hrs after transfection. Stable selection with puromycin after infection with lentivirus harboring RNAi oligos (ABM) against human NEIL2 (CAT#i014980a), CETN2 (CAT#i004479a), and ERCC1 (CAT#i007023a) or scrambled control (CAT#i000238c) was conducted using manufacturer's protocol. Growth assays were repeated independently in triplicate as previously reported (50) using Alamar blue to detect cell viability. Final readings were between 4-6 days after initial drug treatment and fold change plotted for analysis. Fulvestrant(Fisher Scientific CAT#506242), 4-OHT(Sigma-Aldrich CAT#H7904), Palbociclib (ThermoFisher CAT#508548) and Abemaciclib (ThermoFisher CAT#NC0577560), dissolved in DMSO, and β-estradiol (Sigma-Aldrich CAT#E2758-1G), dissolved in water, at 10 mmoles/L were stored long term at −80 C with working stocks at −20 C. Cells were treated 24 hours after plating with fresh drug added every 48 hrs until the end of the experiment. Estradiol addition experiments were conducted in phenol red-free DMEM with 10% charcoal stripped serum.

| SMILES | tumor viability after treatment (AUC) (ER+ PDX lines (BCaPE)) | growth inhibition in response to treatment (ZR-75 cells) | PCNA positivity after treatment (MCF7 cells [1]) | Ki67 inhibition in response to treatment (MCF7 cells [2]) | growth phenotype under treatment (MCF7 cells [3]; MCF7 cells stably selected with lentiviral RNAi against CETN2, NEIL2, ERCC1) | growth response to treatment (MCF7 cells [3]; MCF7 cells with siRNA knockdown of negative control genes RAD23B and POLM) | sensitivity (growth inhibition relative to vehicle treated cells) (MCF7 cells [3]; MCF7 cells with stable knockdown of CETN2, NEIL2 or ERCC1) | sensitivity (growth inhibition relative to vehicle treated cells) (MCF7 cells [3]; control MCF7 cells (scrambled RNAi)) | growth inhibition in response to treatment (MCF7 cells [3]; siCETN2, siNEIL2 and siERCC1 MCF7 cells (transient siRNA) vs siScr, media containing full serum) |
| --- | --- | --- | --- | --- | --- | --- | --- | --- | --- |
| CC(C)(C#N)c1cc(Cn2cncn2)cc(C(C)(C)C#N)c1 [anastrozole] | significantly higher tumor viability | – | – | – | – | – | – | – | – |
| C[C@]12CC[C@@H]3c4ccc(O)cc4C[C@@H](CCCCCCCCC[S+]([O-])CCCC(F)(F)C(F)(F)F)[C@H]3[C@@H]1CC[C@@H]2O (stereo partly drawn) [fulvestrant, Fulvestrant] | – | significant lack of growth inhibition | Increased PCNA positivity | profound lack of Ki67 inhibition | Fulvestrant-independent | did not alter growth response | resistance | comparable sensitivity | significant lack of growth inhibition |

Reference: patent US20220249476A1, “MutL LOSS PREDICTS SENSITIVITY TO CDK4/6 INHIBITORS IN CANCER” (Baylor College of Medicine, priority 2018, published 2022)
